Inhibition data for 6 compounds are collected here from patent US20240116845A1, “INDENE COMPOUNDS, PHARMACEUTICAL COMPOSITIONS THEREOF, AND THEIR THERAPEUTIC APPLICATIONS” (NucMito Pharmaceuticals Co., Ltd., priority 2021, published 2024).

By inhibition is commonly meant the share of the control response that was lost under treatment.

Bounds are passed on as bounds.

What all share (assay type): cell-based
Assay [1] deals with alpha-smooth muscle actin (α-SMA). The assay can be described thus: Inhibition of TGF-β induced expression of alpha-smooth muscle actin in CFSC cells (western blot). To be noted: compound at 10 μM, TGF-β (10 ng/mL), 24 hours. The procedure, abridged:
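Read-out is percent decrease in α-SMA western-blot band intensity, β-actin also probed, relative to TGF-β-only cells. CFSC cells were co-treated for 24 h at 37 °C with 10 ng/mL TGF-β and 10 μM compound in serum-free DMEM.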
Background: In western blotting, separated proteins are transferred to a membrane and probed.

The subject of assay [2] is A431 (epidermoid carcinoma). The assay can be described thus: Antiproliferative activity, CCK-8 cell viability. To be noted: Homo sapiens, A-431, 72 h, read-out: Inhibition of Cancerous Cells, A431; for inhibition at 3.3 µM: compound concentration of 3.3 μM; for inhibition at 10 µM: compound concentration of 10 μM; for inhibition at 30 µM: compound concentration of 30 μM. The procedure, abridged: (§1)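 Viability relative to DMSO controls came from CCK-8 absorbance at 450 nm after 72 h exposure at 37°C. Compound concentrations were 3.3, 10 or 30 μM, in DMEM plus 10% FBS. Results are categorised by inhibition level: at least 50%, 30 to under 50%, or under 30%.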

In assay [3] the test system is A549 (lung adenocarcinoma). The assay can be described thus: Antiproliferative activity, CCK-8 cell viability. To be noted: Homo sapiens, 72 h, read-out: Inhibition of Cancerous Cells, A549; for inhibition at 3.3 µM: compound concentration of 3.3 μM; for inhibition at 10 µM: compound concentration of 10 μM; for inhibition at 30 µM: compound concentration of 30 μM.
The test system of assay [4] is B16F10 (malignant melanoma). Kind of assay: Antiproliferative activity, CCK-8 cell viability. The settings on record: Mus musculus, B16-F10, 72 h, read-out: Inhibition of Cancerous Cells, B16F10; for inhibition at 3.3 µM: compound concentration of 3.3 μM; for inhibition at 10 µM: compound concentration of 10 μM; for inhibition at 30 µM: compound concentration of 30 μM. In outline: as §1

A further assay concerns HeLa (cervical cancer). The assay can be described thus: Antiproliferative activity, CCK-8 cell viability. To be noted: Homo sapiens, 72 h, read-out: Inhibition of Cancerous Cells, HELA; for inhibition at 3.3 µM: compound concentration of 3.3 μM; for inhibition at 10 µM: compound concentration of 10 μM; for inhibition at 30 µM: compound concentration of 30 μM.
The next assay concerns HepG2 (liver cancer). The assay can be described thus: Antiproliferative activity, CCK-8 cell viability. The settings on record: Homo sapiens, 72 h, read-out: Inhibition of Cancerous Cells, HepG2; for inhibition at 3.3 µM: compound concentration of 3.3 μM; for inhibition at 10 µM: compound concentration of 10 μM; for inhibition at 30 µM: compound concentration of 30 μM. The procedure, abridged:
as §1

In assay [5] the test system is MDA-MB-231 (breast cancer). The assay can be described thus: Antiproliferative activity, CCK-8 cell viability. To be noted: Homo sapiens, 72 h, read-out: Inhibition of Cancerous Cells, MDA-MB-231; for inhibition at 3.3 µM: compound concentration of 3.3 μM; for inhibition at 10 µM: compound concentration of 10 μM; for inhibition at 30 µM: compound concentration of 30 μM. In outline:
as §1

In a further assay the test system is SW480 (colon cancer). The assay can be described thus: Antiproliferative activity, CCK-8 cell viability. To be noted: Homo sapiens, 72 h, read-out: Inhibition of Cancerous Cells, SW480; for inhibition at 3.3 µM: compound concentration of 3.3 μM; for inhibition at 10 µM: compound concentration of 10 μM; for inhibition at 30 µM: compound concentration of 30 μM. In outline: as §1

As for `COc1ccc(Oc2cccc(/C=C3/C(C)=C(CC(=O)O)c4cc(F)ccc43)c2)cc1` [Compound D22, 2-[(1Z)-5-Fluoro-2-methyl-1-({3-[4-methoxyphenoxy]phenyl}methylidene)-1H-inden-3-yl]acetic acid], the inhibition at 10 µM was no less than 80% in assay [1]; less than 30% in assay [2]; 30 to 50% in assay [3]; no less than 50% in assay [4]; no less than 50% with HeLa (cervical cancer); 30 to 50% in the assay on HepG2 (liver cancer). The inhibition at 10 µM in assay [5] is no less than 50%; in the assay on SW480 (colon cancer), 30 to 50%. Besides, the inhibition at 3.3 µM in assay [2] is less than 30%; in assay [3], 30 to 50%; in assay [4] it was less than 30%; with HeLa (cervical cancer), 30 to 50%; with HepG2 (liver cancer) it was less than 30%; in assay [5], no less than 50%. Moreover, the inhibition at 3.3 µM in the assay with SW480 (colon cancer) is less than 30%. Further, the inhibition at 30 µM (in assay [2]; in assay [3]; in assay [4]; with HeLa (cervical cancer); with HepG2 (liver cancer); in assay [5]) was no less than 50% each time. Further, the inhibition at 30 µM with SW480 (colon cancer) is no less than 50%.
`CC1=C(CC(=O)O)c2cc(F)ccc2/C1=C\c1cccc(OCc2ccccc2)c1` [Compound A4, 2-[(1Z)-5-Fluoro-1-(3-(benzyloxy)benzylidene)-2-methyl-1H-inden-3-yl]-acetic acid]: the inhibition at 10 µM in assay [1] is 50 to 80%; in assay [2], no less than 50%; in assay [3] it was no less than 50%; in assay [4] it was no less than 50%; in the assay with HeLa (cervical cancer), no less than 50%; in the assay with HepG2 (liver cancer), less than 30%. In addition, the inhibition at 10 µM (in assay [5]; with SW480 (colon cancer)) was no less than 50% throughout. Besides, the inhibition at 3.3 µM in assay [2] was 30 to 50%; in assay [3], 30 to 50%; in assay [4], no less than 50%; in the assay with HeLa (cervical cancer) it was 30 to 50%; with HepG2 (liver cancer), less than 30%; in assay [5] it was no less than 50%. The inhibition at 3.3 µM in the assay on SW480 (colon cancer) lay in the range of 30 to 50%. Further, the inhibition at 30 µM (in assay [2]; in assay [3]; in assay [4]; with HeLa (cervical cancer); in the assay on HepG2 (liver cancer); in assay [5]) was no less than 50% throughout. Besides, the inhibition at 30 µM in the assay on SW480 (colon cancer) is no less than 50%.
For the compound `CC1=C(CC(=O)O)c2cc(F)ccc2/C1=C\c1ccc(COc2ccc(F)cc2F)cc1` [Compound A15, 2-[(1Z)-1-({4-[(2,4-Difluorophenoxy)methyl]phenyl}methylidene)-5-fluoro-2-methyl-1H-inden-3-yl]acetic acid], the inhibition at 10 µM in assay [1] was no less than 80%; in assay [2] it was less than 30%; in assay [3], no less than 50%; in assay [4], no less than 50%; in the assay with HeLa (cervical cancer), no less than 50%; in the assay on HepG2 (liver cancer), no less than 50%. Further, the inhibition at 10 µM (in assay [5]; in the assay with SW480 (colon cancer)) was no less than 50% in each case. In addition, the inhibition at 3.3 µM is less than 30% in assay [2]; 30 to 50% in assay [3]; no less than 50% in assay [4]; 30 to 50% in the assay on HeLa (cervical cancer); no less than 50% with HepG2 (liver cancer); no less than 50% in assay [5]. Further, in the assay with SW480 (colon cancer), the inhibition at 3.3 µM is no less than 50%. The inhibition at 30 µM (in assay [2]; in assay [3]; in assay [4]; with HeLa (cervical cancer); in the assay on HepG2 (liver cancer); in assay [5]) was no less than 50% each time. Moreover, in the assay with SW480 (colon cancer), the inhibition at 30 µM was no less than 50%.
Turning to `CC1=C(CC(=O)O)c2cc(F)ccc2/C1=C\c1ccc(F)c(Oc2ccccc2)c1` [Compound D23, 2-[(1Z)-5-Fluoro-1-(4-fluoro-3-(phenoxy)benzylidene)-2-methyl-1H-inden-3-yl]-acetic acid], the inhibition at 10 µM in assay [1] was no less than 80%; in assay [2], 30 to 50%; in assay [3] it was no less than 50%; in assay [4], no less than 50%; with HeLa (cervical cancer), no less than 50%; in the assay on HepG2 (liver cancer), no less than 50%. Moreover, the inhibition at 10 µM is no less than 50% in assay [5] and 30 to 50% in the assay on SW480 (colon cancer). Moreover, the inhibition at 3.3 µM is less than 30% in assay [2]; less than 30% in assay [3]; less than 30% in assay [4]; less than 30% in the assay with HeLa (cervical cancer); 30 to 50% with HepG2 (liver cancer); no less than 50% in assay [5]. Further, the inhibition at 3.3 µM with SW480 (colon cancer) is less than 30%. In addition, the inhibition at 30 µM (in assay [2]; in assay [3]; in assay [4]; in the assay with HeLa (cervical cancer); with HepG2 (liver cancer); in assay [5]) was no less than 50% in each case. Besides, the inhibition at 30 µM in the assay on SW480 (colon cancer) was no less than 50%.
Consider `CC1=C(CC(=O)O)c2cc(F)cc(F)c2/C1=C/c1cccc(Oc2ccccc2)c1` [Compound E7, 2-[(1E)-5,7-Difluoro-1-(3-(phenoxy)benzylidene)-2-methyl-1H-inden-3-yl]-acetic acid], for which the inhibition at 10 µM was no less than 80% in assay [1]; no less than 50% in assay [2]; less than 30% in assay [3]; no less than 50% in assay [4]; no less than 50% in the assay on HeLa (cervical cancer); no less than 50% with HepG2 (liver cancer). Besides, the inhibition at 10 µM (in assay [5]; in the assay with SW480 (colon cancer)) was no less than 50% each time. For the same compound, the inhibition at 3.3 µM in assay [2] was 30 to 50%; in assay [3], less than 30%; in assay [4], no less than 50%; in the assay on HeLa (cervical cancer), 30 to 50%; with HepG2 (liver cancer), no less than 50%; in assay [5], no less than 50%. In the assay with SW480 (colon cancer), the inhibition at 3.3 µM is less than 30%. The inhibition at 30 µM (in assay [2]; in assay [3]; in assay [4]; with HeLa (cervical cancer); with HepG2 (liver cancer); in assay [5]) was no less than 50% throughout. Also, the inhibition at 30 µM with SW480 (colon cancer) was no less than 50%.
Take `CC1=C(CC(=O)O)c2cc(F)cc(F)c2/C1=C\c1cccc(Oc2ccccc2)c1` [Compound D20, 2-[(1Z)-5,7-Difluoro-1-(3-(phenoxy)benzylidene)-2-methyl-1H-inden-3-yl]-acetic acid]: the inhibition at 10 µM is no less than 80% in assay [1]; less than 30% in assay [2]; no less than 50% in assay [3]; no less than 50% in assay [4]; less than 30% in the assay with HeLa (cervical cancer); no less than 50% in the assay with HepG2 (liver cancer). Further, the inhibition at 10 µM (in assay [5]; with SW480 (colon cancer)) was no less than 50% in each case. The inhibition at 3.3 µM in assay [2] was less than 30%; in assay [3], 30 to 50%; in assay [4], 30 to 50%; with HeLa (cervical cancer), less than 30%; in the assay on HepG2 (liver cancer), no less than 50%; in assay [5], 30 to 50%. Also, the inhibition at 3.3 µM with SW480 (colon cancer) was no less than 50%. Moreover, the inhibition at 30 µM (in assay [2]; in assay [3]; in assay [4]; with HeLa (cervical cancer); in the assay on HepG2 (liver cancer); in assay [5]) was no less than 50% in each case. For the same compound, the inhibition at 30 µM in the assay with SW480 (colon cancer) is no less than 50%.
